pEC50: −log10 of the molar value. Marks after values point to notes of the source that are not given here.
Experiments:
menschlichen Sebocyten = assay: Inhibition of sebocyte proliferation in vitro (sebocytes cultured on 3T3 fibroblast layer, cell count by haemocytometer); assay type: cell-based; conditions: amount inhibiting sebocyte proliferation by 50% versus solvent-treated control culture, read-out: ED₅₀
Description: 22a, Abstract 46 beschriebenen Methode isoliert und auf einer Schicht von Mäusen-Fibroblasten 3T3 kultiviert. Durch enzymatische und mechanische Methoden wurde aus Hautgewebe eine Suspension von Sebocyten hergestellt. Dazu wurden die Zellen entweder in 2% Humanserum, 8% fetales Kälberserum und 4 µg/ml Dexamethason oder in 10% fetales Kälberserum und 4 µg/ml Dexamethason enthaltendem Iscove-Medium kultiviert
Den Kulturen wurden die Testverbindungen im Medium alle 48 Stunden zugegeben. Nach der letzten Zugabe wurden die Fibroblasten 3T3 mit 0,03% EDTA in PBS abgespült. Die zurückbleibenden Sebocyten-Kolonien wurden in 0,05% Trypsin/0,03% EDTA unter Bildung einer einheitlichen Zellensuspension von Sebocyten inkubiert. Die Zellen wurden dann verdünnt und mittels eines Hämocytometers gezählt.
Es wurden 10⁻² M äthanolische Lösungen der Testverbindungen vorbereitet und dann auf 10⁻⁶, 10⁻⁷, 10⁻⁸ und 10⁻⁹ M verdünnt.
Die Resultate sind in der nachstehenden Tabelle 1 als Menge der Verbindung, die die Proliferation der Sebocyten um 50% gegenüber einem Kontrollwert hemmen, angegeben. Der Kontrollwert wurde aus einer lediglich mit Lösungsmittel behandelten Zellenkultur erhalten. Tabelle 1

[1] = tested on: Talgdrüsen des Hamsterohrs; assay: Effect on sebaceous glands of the hamster ear after oral administration (daily for 4 weeks); assay type: in vivo, syrischen Goldhamstern; conditions: change of sebaceous gland cross-section
Description: Der Effekt von Verbindungen der Formel I auf die Talgdrüsen des Hamsterohrs nach oraler Verabreichung wurde ermittelt. Männlichen syrischen Goldhamstern wurden täglich 200 µl einer Lösung der Testverbindungen in Propylenglykol oral verabreicht. Nach 4 Wochen wurden die Tiere getötet. Die Fläche der Talgdrüsen auf den Ohren wurde ermittelt. Die Resultate sind in Tabelle 4 als Veränderung im Querschnitt der Talgdrüsen des Hamsterohrs angegeben: Tabelle 4

[2] = tested on: Talgdrüsen des Hamsterohrs; assay: Topical activity on sebaceous glands of the hamster ear (daily application for 4 weeks); assay type: in vivo; conditions: change of sebaceous gland cross-section versus acetone controls
Description: Die topische Wirksamkeit von Verbindungen der Formel I gegen Akne wurde an Talgdrüsen des Hamsterohrs gemessen. Versuchstieren wurden 50 µl einer Lösung der Testverbindung und Kontrolltieren 50 µl Aceton täglich auf das Ohr appliziert. Nach 4 Wochen wurden die Tiere getötet. Die Fläche der Talgdrüsen auf den Ohren wurde ermittelt. In der Tabelle 2 sind die Resultate als %-Aenderung gegenüber Kontrolltieren der Veränderung des Querschnitts der Talgdrüsen auf dem Hamsterohr angegeben: Tabelle 2

[3] = Soft tissue calcification in rats (45Ca radioactivity in heart and kidneys); assay type: in vivo, Ratten; conditions: ratio relative to compound X (=1); for Verkalkungsverhältnis Subkutan: subcutaneous administration for 4 days; for Verkalkungsverhältnis Topisch: topical administration for 4 days
Description: Zum Nachweis der Verkalkung von weichem Gewebe durch die Verbindungen der Formel I erhielten Ratten subkutane Injektionen von 40 µCi ⁴⁵Ca. Die Verbindungen wurden dann subkutan oder topisch während 4 Tagen den Tieren verabreicht. Die Ratten wurden 1 Tag nach der letzten Injektion getötet. Herz und Nieren wurden entfernt und mit Salpetersäure behandelt. Es wurde die Radioaktivität einer Menge von 0,2 ml dieser Präparation gemessen.

[4] = oral, 5,00 µg/kg daily in propylene glycol
[5] = topical, 10,00 µg/Hamster daily

Row | Compound | pEC50 (menschlichen Sebocyten) | % Veränderung ([1]; oral, 0,05 µg/kg daily in propylene glycol) | % Veränderung ([1]; oral, 0,50 µg/kg daily in propylene glycol) | % Veränderung [1, 4] | % Veränderung ([1]; oral, 50,00 µg/kg daily in propylene glycol) | % Aenderung ([2]; topical, 0,10 µg/Hamster daily) [%] | % Aenderung ([2]; topical, 1,00 µg/Hamster daily) [%] | % Aenderung [2, 5] [%] | Verkalkungsverhältnis Subkutan [3] | Verkalkungsverhältnis Topisch [3] | % Veränderung ([1]; oral, 2,50 µg/kg daily in propylene glycol) | % Veränderung ([1]; oral, 10,00 µg/kg daily in propylene glycol) | % Veränderung ([1]; oral, 20,00 µg/kg daily in propylene glycol)
1 | C=C1/C(=C\C=C2/CCC[C@]3(C)C([C@H](C)CCCC(C)(C)O)=CC[C@@H]23)C[C@@H](O)C[C@@H]1O [A, 1α,25-Dihydroxy-16-dehydrocholecalciferol] | 9.00 |  |  |  |  |  |  |  |  |  |  |  | 
2 | C=C1CC[C@H](O)C/C1=C/C=C1\CCC[C@]2(C)C([C@H](C)CC#CC(C)(C)O)=CC[C@@H]12 [F, 25-Hydroxy-16-dehydro-23-didehydrocholecalciferol] | 7.00 | -16* % | -23** % | -42*** % | -55*** % | -23 | -40 | -64 | >1400 | >34 |  |  | 
3 | C=C1CC[C@H](O)C/C1=C/C=C1\CCC[C@]2(C)C([C@H](C)C/C=C/C(C)(C)O)=CC[C@@H]12 [Verbindung D, 25-Hydroxy-16,23E-bisdehydrocholecalciferol] | < 6.00 |  |  | -22** % |  | -16 | -16 | -43 | >1400 | >34 | -15* % | -27*** % | -36*** %
4 | C=C1/C(=C\C=C2/CCC[C@]3(C)C([C@H](C)CC#CC(C)(C)O)=CC[C@@H]23)C[C@@H](O)C[C@@H]1O [Verbindung E, 1α,25-Dihydroxy-16-dehydro-23-didehydrocholecalciferol] | 9.00 |  |  |  |  |  |  |  | 47 | > 1 |  |  | 
5 | C=C1/C(=C\C=C2/CCC[C@]3(C)[C@@H]([C@H](C)CCCC(C)(C)O)CC[C@@H]23)C[C@@H](O)C[C@@H]1O [Verbindung X, 1α,25-Dihydroxycholecalciferol, reference compound] | 8.30 |  |  |  |  |  |  |  | 1 | 1 |  |  | 

Source: patent publication EP0398217B1, “Dehydrocholecalciferol derivatives” (F. HOFFMANN-LA ROCHE AG, priority 1989, dated 1990)
